For data set [1] the following is noted: cited from earlier work.
A short description of data set [2]: Fasting serum urate levels, open-label fixed-sequence clinical study (NCT01428284). In kind it is in vivo, human. The conditions noted are these: for Decrease of mean serum urate level from baseline: canagliflozin alone; for Serum urate level, Mean / Serum urate level, Mean Decrease: healthy subjects, canagliflozin 300 mg once daily from Day 1. From the text: (§1) A single-center, open-label, fixed-sequence study to assess the effects of multiple-dose probenecid on multiple-dose of canagliflozin, in healthy subjects, was completed as described below (study NCT01428284) on clinicaltrials.gov registry website). The study consisted of 3 phases: (1) a Screening Phase of approximately 19 days (Day −21 to Day −3), (2) an Open-label Treatment Phase of 20 days (Day −2 to Day 18), and (3) a Follow-up phase (7 to 10 days after discharge on Day 18). The total duration of the study was approximately 49 days.
(§2) Subjects with history of (or current) any of the following medical conditions were excluded: (a) Acute or chronic renal insufficiency (eGFR below 90 mL/min/1.73 m^2); (b) Kidney or bladder stones (nephrolithiasis); (c) Hyperuricosuria (>800 mg/day), or gout; and/or (d) Hyperuricemia (>6.8 mg/dL, 404 μmol/L). Reasons for subject withdrawal from the study could include the following: (a) Lost to follow-up; (b) Withdrawal of consent; (c) Withdrawal of consent for pharmacogenomic research (Part 1); (d) Subject was not in compliance with requirements of the study and prohibitions and restrictions; and/or (e) A subject could be discontinued from study treatment (final assessments were to be obtained) if the investigator believed that for safety reasons (eg, adverse event) it was in the best interest of the subject to stop study treatment.
(§3) All study drugs were taken between 7:30 and 9:30 a.m. with 240 mL of noncarbonated water. Study drug was swallowed whole and not chewed, divided, dissolved or crushed. […] For each subject, on days when both canagliflozin and probenecid were administered, both doses were administered at approximately the same time.
(§4) Canagliflozin was administered as a single 300-mg tablet on Days 1 to Day 17. Probenecid was administered b.i.d. as one 500-mg tablet from Day 15 to Day 17. On Day 14 and Day 17, subjects received study drug under fasted conditions, and standardized lunch approximately 4 hours after study drug administration. On all other study days, subjects received canagliflozin and/or probenecid 1 hour before they received a standardized meal. The study diet was standardized by the site dietician in order to minimize the effect on uric acid levels. Subjects were also advised not to consume high purine-enriched foods from screening to completion of the study.
(§5) All laboratory testing was conducted by a licensed clinical laboratory (Physicians Reference Laboratory [PRL]), 7800 West 110th Street, Overland Park, Kans. 66210-2304). Clinical laboratory tests included, among others:
(a) Serum chemistry: glucose, creatinine, blood urea nitrogen (BUN), total protein, total bilirubin, phosphate, albumin, calcium, fasting serum uric acid, sodium, potassium, chloride, magnesium, lactic acid dehydrogenase, alkaline phosphatase, alanine transaminase, aspartate transaminase, gamma-glutamyltransferase, bicarbonate, creatine phosphokinase, total cholesterol (screening only), and triglycerides (screening only); and
(§6) Laboratory data were summarized by type of laboratory test. Normal reference ranges and abnormal results were used in the summary of laboratory data. Descriptive statistics were calculated for each laboratory analyte at baseline, Day 18, and end-of-study.
Table 1, below lists mean serum urate levels and calculated mean decrease through the course of the study. […] FIG. 1 illustrates said mean serum urate levels (±standard deviation) as a function of study day.

A short description of data set [3]: 24-hour urinary uric acid excretion, open-label fixed-sequence clinical study (NCT01428284). The conditions noted are these: for Increase of mean urinary urate excretion compared to baseline: canagliflozin alone; for Urine urate excretion, Mean / Urine urate excretion, Mean Change from Day−1: healthy subjects, 24-hour urine, canagliflozin 300 mg once daily from Day 1. In kind it is in vivo, human.
Description: as §1, §2, §3, §4, §5
(b) Urinary uric acid excretion: A 24-hour total urine was collected at the time points specified in the Time and Events Schedule of the study protocol. The samples were mixed thoroughly and stored between 2° C. and 8° C. until shipment.
as §6
Table 2, below, lists mean urine uric acid excretion and calculated mean changes through the course of the study. FIG. 2 illustrates said mean uric acid excretion (±standard deviation) as a function of study day.

On to `Oc1ncnc2[nH]ncc12` [Allopurinol], for which the Patients with side-effects result in data set [1] is “up to 20%”.

Regarding `Cc1ccc([C@@H]2O[C@H](CO)[C@@H](O)[C@H](O)[C@H]2O)cc1Cc1ccc(-c2ccc(F)cc2)s1` [canagliflozin], the “Decrease of mean serum urate level from baseline” value in data set [2] (Day 2) was “approximately 19%”; in data set [2] (Day 3), about 24%; in data set [2] (Day 14), about 23%. Besides, the “Serum urate level, Mean” value in data set [2] (Day 1) came to 293.151 µmol/L; in data set [2] (Day 2) it was 241.580 µmol/L; in data set [2] (Day 3), 228.769 µmol/L; in data set [2] (Day 14) it was 229.684 µmol/L. The “Serum urate level, Mean Decrease” value in data set [2] (Day 1) is -5.523 µmol/L; in data set [2] (Day 2), -57.650 µmol/L; in data set [2] (Day 3) it was -70.461 µmol/L; in data set [2] (Day 14), -69.546 µmol/L. Moreover, the “Increase of mean urinary urate excretion compared to baseline” value was “approximately 19%” in data set [3] (Day 1), about 6% in data set [3] (Day 2) and about 1% in data set [3] (Day 13). In addition, the “Urine urate excretion, Mean” value in data set [3] (Day 1) came to 5.068 mmol/day; in data set [3] (Day 2), 4.544 mmol/day; in data set [3] (Day 13) it was 4.319 mmol/day; in data set [3] (Day 14) it was 4.208 mmol/day. Also, the Urine urate excretion, Mean Change from Day−1 is 0.796 mmol/day in data set [3] (Day 1), 0.273 mmol/day in data set [3] (Day 2), 0.048 mmol/day in data set [3] (Day 13) and -0.064 mmol/day in data set [3] (Day 14).
